Test results as given in patent EP3587416A1, “2-OXOPIPERIDIN-3-YL DERIVATIVES AND USE THEREOF” (Institut Univ. de Ciència i Tecnologia, S.A., priority 2018, dated 2020).
Several values for one entry are separate records, joined by “and”; a condition that tells them apart may be missing. Equal entries are not always repeated.

Key:
[1] = target: T1, CNA-CF-PRIEIT interaction (Homo sapiens, UniProt Q08209); experiment: Fluorescence polarization assay, disruption of the CNA-CF-PRIEIT interaction (Example 20); assay type: binding; details: 50 µM compound, 5 µM human CNAα, 30 nM CF-PRIEIT; mean of triplicates
T1 construct: human CNAα (amino acids 2-347)
T1 sequence (Q08209 2-347): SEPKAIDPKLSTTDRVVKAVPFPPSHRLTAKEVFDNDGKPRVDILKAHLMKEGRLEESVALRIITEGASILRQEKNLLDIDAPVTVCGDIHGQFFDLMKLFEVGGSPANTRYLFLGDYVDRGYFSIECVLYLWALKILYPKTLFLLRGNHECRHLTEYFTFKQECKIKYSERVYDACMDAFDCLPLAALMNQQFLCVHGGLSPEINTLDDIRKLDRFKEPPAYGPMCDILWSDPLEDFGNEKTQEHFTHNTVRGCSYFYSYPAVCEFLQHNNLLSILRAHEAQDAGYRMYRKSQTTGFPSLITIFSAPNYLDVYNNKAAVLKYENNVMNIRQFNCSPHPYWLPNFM
Description: Compounds were analyzed for their potential to disrupt the interaction between the human catalytic domain of the calcineurin Aα subunit (CNAα) and the NFATc2-derived PRIEIT peptide. For this purpose we used Flourescence Polarization (FP) technique described in Mulero et al, 2009 (J. Biol. Chem.284:9394-9401). Briefly, to identify disruptors of the CNA-PRIEIT interaction, 5 µM of human CNAα (amino acids 2-347) is preincubated with 50 µM of each hit compound in OptiPlate black 384-well flat-bottom plates (PerkinElmer Life Sciences) for 15 min at room temperature. Then, carboxyfluorescein (CF)-tagged NFATc2-derived PRIEIT peptide (CF-PRIEIT, 30 nM) is added to each well and incubated for 15 more min at room temperature. Each compound has been analyzed once with triplicates. FP measurements were performed using a Victor™ X5 2030 Multilabel Reader (PerkinElmer Life Sciences) with excitation and emission wavelengths of 485 nm and 535 nm, respectively. The fluorescent polarization of the free CF-peptide was considered 0% binding and the binding of CNA to the CF-PRIEIT peptide as 100% binding. Accordingly, the capacity of the compound to disrupt CNA-CF-PRIEIT interaction was measured. None of them displace the CF-PRIEIT peptide from the CNA-PRIEIT interaction (Table 3). Interaction disruption values are less than 30%. […] Data is given as mean ± standard deviation (SD).

[2] = target: T2, CN-PRIEIT interaction (Homo sapiens, UniProt Q08209); experiment: Fluorescence polarization competition binding assay, CF-SPRIEIT bound to CNA (Example 21); details: 6 µM CNA, 30 nM CF-SPRIEIT, no competitor = 100%
T2 construct: recombinant human CNAD (amino acids 2-347) fused to glutathione S-transferase; GST (glutathione S-transferase); made in house; host or cells: bacteria
T2 sequence (Q08209 2-347): as above
Description: INK compounds were analyzed for their ability to disrupt CN-PRIEIT interaction using a fluorescence polarization assay. This biochemical assay requires recombinant human CNAD (amino acids 2-347) fused to glutathione S-transferase (GST-CN), which was expressed and purified from bacteria, and a NFATc2-derived PRIEIT peptide labeled with carboxyfluorescein (CF), CF-PRIEIT. Competition binding assays of INK compounds on the interaction of CN with the CF-NFATc2-derived PRIEIT peptide were performed by fluorescence polarization. Briefly, 6 µM of CNA was incubated in the absence (positive control of interaction) or in the presence of 50 µM or 10 µM of competitor compound prior to addition of 30 nM of CF-SPRIEIT peptide. VIVIT peptide was included as positive control of interaction disruption ability. Data is represented as mean percentage of CF-SPRIEIT bound to CNA (± SEM) of 2 experiments performed in triplicates. Signal in the absence of competing peptide was considered as 100% of CF-SPRIEIT bound to CNA. Table 4: Functional effect of pair related structure compounds on NFATc activation

[3] = test system: NFATc activation in HEK 293T cells; experiment: 3xNFAT-luc dual-luciferase reporter assay of NFATc activation; assay type: cell-based, human; details: Io/PMA/CaCl2 stimulation, inhibition at least at 100, 50 and 20 µM (Figure 1)
Description: • Figure 1. Effect of INK compounds on NFATc activation in HEK 293T cells. Cells were transfected with 3xNFAT-luc reporter gene, treated with each compound at 0 µM / 0.02 µM / 0.2 µM / 1 µM / 5 µM/ 20 µM / 50 µM /100 µM (increasing concentrations of the compounds are represented in the graph from left to right) for 2 hours. Then, cells were calcium stimulated with ionomycin (1 µM), PMA (20 nM) and CaCl2 (10 mM) for 4 hours and luciferase activity was analyzed following the dual luciferase reporter assay manufacters' indications and a luminometer (Victor X5 plate reader form Perin-Elmer). […] CN activity towards the RII peptide was analyzed in the absence (positive control of CN activity) or in the presence of each compound at 50 µM, or of 50 µM of LxVP peptide (positive control of CN activity inhibition). […]
To determine the ffect of INK compounds on NFATc activation, HEK 293T cells were transfected with 3xNFAT-luc reporter gene and Renilla-luc plasmid as control of gene transfection. […] Then, cells were treated with compounds of formula (I) at several concentrations for 2 hours and light units analyzed following manufacture's protocol of the dual-luciferase reporter assay system (Figure 1, Functional effect of pair related structure compounds on NFATc activation).

| inhibition at 50 µM [1] | SMILES | also measured |
| --- | --- | --- |
| 6.53% | COc1ccccc1-c1ccc(N2CCCC(NS(=O)(=O)c3cc(Cl)c(Cl)s3)C2=O)c(F)c1 (stereo not shown) [IUCT-0460, 4,5-Dichloro-N-(1-(3-fluoro-2'-methoxy-[1,1'-biphenyl]-4-yl)-2-oxopiperidin-3-yl)thiophene-2-sulfonamide] |  |
| 11.1% | COc1ccccc1-c1ccc(N2CCCC(NS(=O)(=O)c3c(C)noc3C)C2=O)c(F)c1 (stereo not shown) [IUCT-0461, N-(1-(3-fluoro-2'-methoxy-[1,1'-biphenyl]-4-yl)-2-oxopiperidin-3-yl)-3,5-dimethylisoxazole-4-sulfonamide] |  |
| 25.7% | COc1ccccc1-c1ccc(N2CCCC(NS(=O)(=O)c3ccc4c(c3)OCO4)C2=O)c(F)c1 (stereo not shown) [IUCT-0462, N-(1-(3-fluoro-2'-methoxy-[1,1'-biphenyl]-4-yl)-2-oxopiperidin-3-yl)benzo[d][1,3]dioxole-5-sulfonamide] |  |
| 15.8% | COc1ccccc1-c1ccc(N2CCCC(NS(=O)(=O)c3ccc(-c4ccccn4)s3)C2=O)c(F)c1 (stereo not shown) [IUCT-0463, N-(1-(3-fluoro-2'-methoxy-[1,1'-biphenyl]-4-yl)-2-oxopiperidin-3-yl)-5-(pyridin-2-yl)thiophene-2-sulfonamide] |  |
| 25.8% | COc1ccccc1-c1ccc(N2CCCC(NS(=O)(=O)c3cc4ccccc4o3)C2=O)c(F)c1 (stereo not shown) [IUCT-0464, N-(1-(3-fluoro-2'-methoxy-[1,1'-biphenyl]-4-yl)-2-oxopiperidin-3-yl)benzofuran-2-sulfonamide] | Relative interaction (%) Mean ([2]; 10 µM competitor): 93,8%; Relative interaction (%) Sample at 10 µM ([2]; 10 µM competitor, single replicate): 96,8% and 92,3% and 92,4%; Relative interaction (%) Mean ([2]; 50 µM competitor): 83,2%; Relative interaction (%) Sample at 50 µM ([2]; 50 µM competitor, single replicate): 79,0% and 87,7% and 82,9%; NFATc activation [3]: strongly inhibits |
| 13.8% | COc1ccccc1-c1ccc(N2CCCC(N(CC#N)S(=O)(=O)c3cc(Cl)c(Cl)s3)C2=O)c(F)c1 (stereo not shown) [IUCT-0465, 4,5-Dichloro-N-(cyanomethyl)-N-(1-(3-fluoro-2'-methoxy-[1,1'-biphenyl]-4-yl)-2-oxopiperidin-3-yl)thiophene-2-sulfonamide] |  |
| 16.7% | CCOC(=O)CN(C1CCCN(c2ccc(-c3ccccc3OC)cc2F)C1=O)S(=O)(=O)c1ccc2c(c1)OCO2 (stereo not shown) [IUCT-0466, Ethyl N-(benzo[d][1,3]dioxol-5-ylsulfonyl)-N-(1-(3-fluoro-2'-methoxy-[1,1'-biphenyl]-4-yl)-2-oxopiperidin-3-yl)glycinate] |  |
| 29.3% | CCOC(=O)CN(C1CCCN(c2ccc(-c3ccccc3OC)cc2F)C1=O)S(=O)(=O)c1ccc(-c2ccccn2)s1 (stereo not shown) [IUCT-0469, Ethyl N-(1-(3-fluoro-2'-methoxy-[1,1'-biphenyl]-4-yl)-2-oxopiperidin-3-yl)-N-((5-(pyridin-2-yl)thiophen-2-yl)sulfonyl)glycinate] |  |
